{"source": "patent US9302999B2", "about": "“Substituted triazoles as herbicides” (E. I. DU PONT DE NEMOURS AND COMPANY, priority 2012, dated 2016)", "type_in_all_cases": "in vivo", "key": {"[1]": {"tested_on": "buckwheat, wild (wild buckwheat, Polygonum convolvulus)", "experiment": "Test D pre-/postemergence: buckwheat, wild", "summary_of_the_method": "(§1)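 Scores run from 0 (no effect) to 100 (complete control), assigned by visual comparison with controls after 14 to 21 days in a controlled environment. Both preemergence application to silt loam and postemergence application to 1- to 4-leaf plants were tested.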"}, "[2]": {"tested_on": "chickweed (common chickweed, Stellaria media)", "experiment": "Test D pre-/postemergence: chickweed", "summary_of_the_method": "as §1"}, "[3]": {"tested_on": "oat, wild (wild oat, Avena fatua)", "experiment": "Test D pre-/postemergence: oat, wild", "summary_of_the_method": "as §1"}, "[4]": {"tested_on": "windgrass (Apera spica-venti)", "experiment": "Test D pre-/postemergence: windgrass", "summary_of_the_method": "as §1"}, "[5]": {"tested_on": "sedge, umbrella (small-flower umbrella sedge, Cyperus difformis)", "experiment": "Test C flooded paddy test: sedge, umbrella", "details": "Cyperus difformis, scale 0 to 100 (0 no effect, 100 complete control), read-out: Plant response rating, Sedge, Umbrella", "summary_of_the_method": "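Greenhouse plants treated at the 2-leaf stage by dosing the flood water (3 cm depth, maintained) were compared with controls after 13 to 15 days and rated 0 to 100, where 100 means complete control; a dash marks no test result.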"}, "[6]": {"tested_on": "common (oilseed) sunflower (Helianthus annuus)", "experiment": "Test C pre-/postemergence: sunflower", "details": "Preemergence", "summary_of_the_method": "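Visual injury scored 0–100 (100 = complete control) against untreated controls after 13–15 greenhouse days. Surfactant-containing solvent formulations applied either to soil after sowing (loam/sand) or over 1- to 4-leaf plants, 2–18 cm tall.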"}, "[7]": {"tested_on": "windgrass (Apera spica-venti)", "experiment": "Test C postemergence: windgrass", "summary_of_the_method": "(§2)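 Plants at the 1- to 4-leaf stage (2 to 18 cm tall), grown in pots of peat moss/vermiculite planting medium, received postemergence applications of the formulated test chemicals. After 13 to 15 days in a greenhouse, injury was scored visually versus controls from 0 (no effect) to 100 (complete control).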"}, "[8]": {"tested_on": "canarygrass (Phalaris minor)", "experiment": "Test C postemergence: canarygrass", "summary_of_the_method": "as §2"}, "[9]": {"tested_on": "canarygrass (Phalaris minor)", "experiment": "Test D pre-/postemergence: canarygrass", "summary_of_the_method": "as §1"}, "[10]": {"details": "Postemergence, 31 g ai/ha, scale 0 to 100 (0 no effect, 100 complete control)"}, "[11]": {"details": "Postemergence, 62 g ai/ha, scale 0 to 100 (0 no effect, 100 complete control)"}, "[12]": {"details": "Postemergence, 125 g ai/ha, scale 0 to 100, 0 no effect, 100 complete control"}, "[13]": {"details": "Postemergence, 250 g ai/ha, scale 0 to 100 (0 no effect, 100 complete control)"}, "[14]": {"details": "Postemergence, 16 g ai/ha, scale 0 to 100"}, "[15]": {"details": "Preemergence, 16 g ai/ha, scale 0 to 100 (0 no effect, 100 complete control)"}, "[16]": {"details": "Preemergence, 31 g ai/ha, scale 0 to 100 (0 no effect, 100 complete control)"}, "[17]": {"details": "Preemergence, 62 g ai/ha, scale 0 to 100"}, "[18]": {"details": "Preemergence, 125 g ai/ha, scale 0 to 100"}, "[19]": {"details": "Preemergence, 250 g ai/ha, scale 0 to 100"}, "[20]": {"details": "125 g ai/ha, scale 0 to 100, 0 no effect, 100 complete control"}, "[21]": {"details": "31 g ai/ha, scale 0 to 100 (0 no effect, 100 complete control)"}, "[22]": {"details": "62 g ai/ha, scale 0 to 100 (0 no effect, 100 complete control)"}}, "data": [{"smiles": "Cc1nn(-c2ccc(F)cc2)nc1Oc1ccnc(C(F)(F)F)c1", "note": "[Compound 129, 4-[[2-(4-fluorophenyl)-5-methyl-2H-1,2,3-triazol-4-yl]oxy]-2-(trifluoromethyl)pyridine]", "values": [{"measurement": "Plant response rating: Buckwheat, Wild", "setting": "[1]; [10]", "value": 60}, {"measurement": "Plant response rating: Buckwheat, Wild", "setting": "[1]; [11]", "value": 80}, {"measurement": "Plant response rating: Buckwheat, Wild", "setting": "[1]; [12]", "value": 100}, {"measurement": "Plant response rating: Buckwheat, Wild", "setting": "[1]; [13]", "value": 100}, {"measurement": "Plant response rating, Buckwheat, Wild", "setting": "[1]; [14]", "value": 60}, {"measurement": "Plant response rating, Buckwheat, Wild", "setting": "[1]; [15]", "value": 0}, {"measurement": "Plant response rating, Buckwheat, Wild", "setting": "[1]; [16]", "value": 0}, {"measurement": "Plant response rating, Buckwheat, Wild", "setting": "[1]; [17]", "value": 0}, {"measurement": "Plant response rating, Buckwheat, Wild", "setting": "[1]; [18]", "value": 70}, {"measurement": "Plant response rating, Buckwheat, Wild", "setting": "[1]; [19]", "value": 100}, {"measurement": "Plant response rating: Chickweed", "setting": "[2]; [10]", "value": 90}, {"measurement": "Plant response rating: Chickweed", "setting": "[2]; [11]", "value": 100}, {"measurement": "Plant response rating: Chickweed", "setting": "[2]; [12]", "value": 100}, {"measurement": "Plant response rating: Chickweed", "setting": "[2]; [13]", "value": 100}, {"measurement": "Plant response rating, Chickweed", "setting": "[2]; [14]", "value": 75}, {"measurement": "Plant response rating, Chickweed", "setting": "[2]; [15]", "value": 0}, {"measurement": "Plant response rating, Chickweed", "setting": "[2]; [16]", "value": 100}, {"measurement": "Plant response rating, Chickweed", "setting": "[2]; [17]", "value": 100}, {"measurement": "Plant response rating, Chickweed", "setting": "[2]; [18]", "value": 100}, {"measurement": "Plant response rating, Chickweed", "setting": "[2]; [19]", "value": 100}, {"measurement": "Plant response rating: Oat, Wild", "setting": "[3]; [10]", "value": 10}, {"measurement": "Plant response rating: Oat, Wild", "setting": "[3]; [11]", "value": 10}, {"measurement": "Plant response rating: Oat, Wild", "setting": "[3]; [12]", "value": 20}, {"measurement": "Plant response rating: Oat, Wild", "setting": "[3]; [13]", "value": 25}, {"measurement": "Plant response rating, Oat, Wild", "setting": "[3]; [14]", "value": 10}, {"measurement": "Plant response rating, Oat, Wild", "setting": "[3]; [15]", "value": 0}, {"measurement": "Plant response rating, Oat, Wild", "setting": "[3]; [16]", "value": 0}, {"measurement": "Plant response rating, Oat, Wild", "setting": "[3]; [17]", "value": 5}, {"measurement": "Plant response rating, Oat, Wild", "setting": "[3]; [18]", "value": 55}, {"measurement": "Plant response rating, Oat, Wild", "setting": "[3]; [19]", "value": 100}, {"measurement": "Plant response rating: Windgrass", "setting": "[4]; [10]", "value": 20}, {"measurement": "Plant response rating: Windgrass", "setting": "[4]; [11]", "value": 30}, {"measurement": "Plant response rating: Windgrass", "setting": "[4]; [12]", "value": 70}, {"measurement": "Plant response rating: Windgrass", "setting": "[4]; [13]", "value": 95}, {"measurement": "Plant response rating, Windgrass", "setting": "[4]; [14]", "value": 15}, {"measurement": "Plant response rating, Windgrass", "setting": "[4]; [15]", "value": 0}, {"measurement": "Plant response rating, Windgrass", "setting": "[4]; [16]", "value": 0}, {"measurement": "Plant response rating, Windgrass", "setting": "[4]; [17]", "value": 10}, {"measurement": "Plant response rating, Windgrass", "setting": "[4]; [18]", "value": 75}, {"measurement": "Plant response rating, Windgrass", "setting": "[4]; [19]", "value": 100}, {"measurement": "pest or weed control at 125 g/ha", "setting": "[5]; Flood (flooded paddy test), 125 g ai/ha, visual rating after 13 to 15 days", "value": 85, "unit": "%"}, {"measurement": "pest or weed control at 250 g/ha", "setting": "[5]; Flood (flooded paddy test), 250 g ai/ha, visual rating after 13 to 15 days", "value": 95, "unit": "%"}, {"measurement": "pest or weed control at 31 g/ha", "setting": "[5]; Flood, 31 g ai/ha", "value": 75, "unit": "%"}, {"measurement": "pest or weed control at 62 g/ha", "setting": "[5]; Flood, 62 g ai/ha", "value": 75, "unit": "%"}, {"measurement": "Plant response rating, Sunflower", "setting": "[6]; 31 g ai/ha, scale of 0 to 100, 0 is no effect, 100 is complete control", "value": 0}, {"measurement": "Plant response rating, Sunflower", "setting": "[6]; 62 g ai/ha, scale of 0 to 100, 0 is no effect, 100 is complete control", "value": 0}, {"measurement": "Plant response rating, Sunflower", "setting": "[6]; [20]", "value": 0}, {"measurement": "Plant response rating, Sunflower", "setting": "[6]; 250 g ai/ha, scale 0 to 100, 0 no effect, 100 complete control", "value": 0}, {"measurement": "Plant response rating, Windgrass", "setting": "[7]; [21]", "value": 60}, {"measurement": "Plant response rating, Windgrass", "setting": "[7]; [22]", "value": 80}, {"measurement": "Plant response rating, Windgrass", "setting": "[7]; [20]", "value": 85}, {"measurement": "Plant response rating, Windgrass", "setting": "[7]; 250 g ai/ha, scale 0 to 100", "value": 100}, {"measurement": "Plant response rating, Canarygrass", "setting": "[8]; [21]", "value": 30}, {"measurement": "Plant response rating, Canarygrass", "setting": "[8]; [22]", "value": 45}, {"measurement": "Plant response rating, Canarygrass", "setting": "[8]; [20]", "value": 50}, {"measurement": "Plant response rating, Canarygrass", "setting": "[8]; 250 g ai/ha, scale 0 to 100", "value": 85}, {"measurement": "Plant response rating: Canarygrass", "setting": "[9]; [10]", "value": 10}, {"measurement": "Plant response rating: Canarygrass", "setting": "[9]; [11]", "value": 15}, {"measurement": "Plant response rating: Canarygrass", "setting": "[9]; [12]", "value": 70}, {"measurement": "Plant response rating: Canarygrass", "setting": "[9]; [13]", "value": 80}, {"measurement": "Plant response rating, Canarygrass", "setting": "[9]; [14]", "value": 10}, {"measurement": "Plant response rating, Canarygrass", "setting": "[9]; [15]", "value": 0}, {"measurement": "Plant response rating, Canarygrass", "setting": "[9]; [16]", "value": 15}, {"measurement": "Plant response rating, Canarygrass", "setting": "[9]; [17]", "value": 100}, {"measurement": "Plant response rating, Canarygrass", "setting": "[9]; [18]", "value": 100}, {"measurement": "Plant response rating, Canarygrass", "setting": "[9]; [19]", "value": 100}]}]}
